Data taken from patent US10533018B2, “Antimicrobial prochelators to target drug-resistant bacteria and methods of making and using the same” (Duke University, priority 2015, dated 2020).
pIC50: −log10 of the molar value.

Assays:
[1] = system: resistant E. coli HB101 K-12 transformed to express β-lactamase; test: microbe, parasite or virus in culture; type: cell-based, Escherichia coli; conditions: for pIC50: Escherichia coli
Procedure: In order to determine the antibiotic activity of DB4-51, a debilitated strain of Escherichia coli (HB101 K-12) was transformed with the pGLO plasmid from Bio-Rad in order to express β-lactamase. This transformation was confirmed by growing on a selective medium containing 100 μg/ml ampicillin in Lennox LB with 1.5% agar. A broth microdilution assay was employed to determine the relative activity of DB4-51 against susceptible (HB 101 K-12, no β-lactamase) and resistant (HB 101 K-12 transformed to express β-lactamase) E. coli. […] The bacterial growth was monitored by recording each well's absorbance at 600 nm (OD600.) The OD600 values of E. coli suspensions incubated with various compounds were compared in order to assess their activities.
FIG. 7: OD600 of susceptible and resistant K-12 E. coli cultures against DB4-51 and known antibiotics as a function of concentration. Ampicillin has a penicillin core and cephalexin has a cephalosporin core. Cultures were grown in LB broth at 37° C. while shaking at 200 rpm for 18 hours and then diluted to an OD600 of 0.005 before adding the compounds. […]
(§1) Table 1: Calculated IC50 values for DB4-51, cephalexin, ampicillin, and pyrithione. These values were derived by fitting the data to a log dose-response curve and reporting the concentration corresponding to half the maximum OD600 value for each compound.

[2] = system: susceptible E. coli HB101 K-12 (no β-lactamase); test: Broth microdilution (preliminary, Table 1), susceptible K-12; type: cell-based, Escherichia coli; conditions: for pIC50: Escherichia coli, Susceptable K-12 E. coli, LB, OD600, preliminary results
Procedure: In order to determine the antibiotic activity of DB4-51, a debilitated strain of Escherichia coli (HB101 K-12) was transformed with the pGLO plasmid from Bio-Rad in order to express β-lactamase. This transformation was confirmed by growing on a selective medium containing 100 μg/ml ampicillin in Lennox LB with 1.5% agar. A broth microdilution assay was employed to determine the relative activity of DB4-51 against susceptible (HB 101 K-12, no β-lactamase) and resistant (HB 101 K-12 transformed to express β-lactamase) E. coli. Using Lennox LB as the medium. serial dilutions of the test compounds were performed in a 96-well plate and then inoculated with E. coli before incubating for 16-20 hours at 35° C. The bacterial growth was monitored by recording each well's absorbance at 600 nm (OD600.) The OD600 values of E. coli suspensions incubated with various compounds were compared in order to assess their activities.
FIG. 7: OD600 of susceptible and resistant K-12 E. coli cultures against DB4-51 and known antibiotics as a function of concentration. Ampicillin has a penicillin core and cephalexin has a cephalosporin core. Cultures were grown in LB broth at 37° C. while shaking at 200 rpm for 18 hours and then diluted to an OD600 of 0.005 before adding the compounds. Plates were grown at 35° C. while shaking at 200 rpm and the OD600 was recorded after 18 hours.
as §1

[3] = system: Klebsiella pneumonia (Klebs); test: Broth microdilution growth inhibition (OD600); type: cell-based
Description: Bacterial culture reagents including LB broth (Lennox), agar-agar, ampicillin, and ceftriaxone were purchased from Sigma Aldrich Corp. The Escherichia coli (E. coli) K12 strain HB101 and pGLO E. coli transformation kit purchased from Bio-Rad Laboratories Inc. HB101 was transformed with the bla gene via the pGLO plasmid. The bla gene encodes for a TEM-1 β-lactamase that imparts penicillin resistance to the mutant E. coli K-12 strain (+Bla). Strains E. coli UTI89, [27] pCOM-GFP-transformed E. coli UTI89 (pCOM-GFP), [28] and Methicillin-Resistant Staphylococcus aureus (MRSA) clone USA300 [29] have been previously described. The Extended-Spectrum β-Lactamase (ESBL) E. coli, Klebsiella pneumonia (Klebs), and Pseudomonas aeruginosa (Pseudo) strains were clinical isolates acquired deidentified from Duke Hospital and tested for antibiotic susceptibility in the Clinical Microbiology Laboratory using standard clinical susceptibility methods.
Cultures were incubated on LB (Lennox, Sigma) agar at 37° C. in ambient atmospheric composition. Before beginning an experiment, a single bacterial colony grown on LB agar was resuspended in 2 mL LB broth and incubated overnight to form a turbid cell suspension. The overnight culture was diluted 1:100 in LB and used immediately as the working culture. To assess the antibacterial activity of compounds, the working bacterial culture was aliquoted in a clear, flat-bottomed, 96-well polystyrene plate (Costar) and the compound of interest was added in 2-fold serial dilution from 500 to 1 μM. Plates were covered with a breathable sealing film (Aeroseal, Genesee Scientific) and incubated at 37° C. in ambient atmospheric composition with shaking at 200 rpm. Optical density at 600 nm was recorded after 4 h and 20 h for each well using a standard OD600 protocol with LB serving as the blank. The resulting dose-response curves were fit to a nonlinear regression in GraphPad Prism Version 6 to calculate the IC50 of DB4-51 in each strain.
The ability of DB4-162 to inhibit bacterial growth was assessed by a traditional broth microdilution method that assesses the turbidity of liquid cultures in the presence of varying concentrations of the compound. As described above for DB4-51, the antibacterial properties of the prochelator DB4-162 were assessed in non-pathogenic lab-strain HB101K-12 E. coli and compared to the pGLO-transfected mutant HB101K-12 E. coli that express β-lactamase. Clinically relevant pathogenic bacteria were also screened, including UTI89 E. coli, pCOM transfected UTI89 E. coli (pCOM), extended spectrum β-lactamase (ESBL) E. coli, methicillin-resistant Staphylococcus aureus (MRSA), and Klebsiella pneumonia (Klebs). In addition to being naturally resistant to many β-lactam antibiotics, MRSA can produce a number of β-lactamases. […] It should be noted that all of the bacteria tested are gram-negative except for gram-positive MRSA.
The goal of this screen was to calculate the IC50 of the prochelator in a series of pathogenic bacteria and compare these values to the IC50 of known antibiotics in those same strains to determine the relative effectiveness of DB4-162 against the drug-resistant and drug-susceptible bacteria in comparison to current antibiotic treatment options. Bacterial growth was monitored in LB broth at 37° C. in the presence and absence of DB4-162 for 20 hours. A concentration gradient of DB4-162 from 500 to 0 μM was used to screen all 7 strains of bacteria and the dose-response curves were fit to a […] to calculate the IC50 of DB4-162 in each strain. These IC50 values are an approximation of how effectively DB4-162 inhibits the growth of each bacterial strain in vitro.
IC50 values for ampicillin were calculated via broth microdilution in LB broth only. Values are listed as the mean followed by the 95% confidence interval about the mean. Mean and confidence intervals were calculated from a variable slope, nonlinear regression fit to the dose-response OD600 data. […]

[4] = Klebsiella pneumoniae, LB + 10 μM CuCl2
[5] = Klebsiella pneumoniae, LB + 500 μM BCS
[6] = Klebsiella pneumoniae, LB broth

Structure (SMILES) | pIC50 [1] | decrease of IC50 over time ([1]; resistant K-12, over 22 hours) | pIC50 [2] | pIC50 [3, 4] | pIC50 [3, 5] | pIC50 [3, 6] | activity against susceptible strain (FIG. 7) ([2]; susceptible strain of E. coli) | pIC50 ([3]; LB broth)
O=C(Cc1ccccc1)N[C@@H]1C(=O)N2C(C(=O)O)=C(CSc3cccc[n+]3[O-])CS[C@H]12 [DB4-51, 2-((((6R,7R)-2-carboxy-8-oxo-7-(2-phenylacetamido)-5-thia-1-azabicyclo[4.2.0]oct-2-en-3-yl)methyl)thio)pyridine 1-oxide] | 4.41 | 50% | 4.10 | 7.60 | 7.70 | – | – | –
[O-][n+]1ccccc1S [PT, 2-mercaptopyridine N-oxide] | > 4.74 | – | > 4.74 | 8.05 | 7.72 | 7.96 | – | –
Cc1csc(=S)n1OCC1=C(C(=O)O)N2C(=O)[C@@H](NC(=O)Cc3ccccc3)[C@H]2SC1 [DB4-162, (6R,7R)-3-(((4-methyl-2-thioxothiazol-3(2H)-yl)oxy)methyl)-8-oxo-7-(2-phenylacetamido)-5-thia-1-azabicyclo[4.2.0]oct-2-ene-2-carboxylic acid] | – | – | – | 4.66 | 4.62 | 4.55 | – | –
CC1(C)S[C@@H]2[C@H](NC(=O)[C@H](N)c3ccccc3)C(=O)N2[C@H]1C(=O)O [Ampicillin] | < 3.25 | – | > 4.74 | – | – | – | very active | < 3.60
